Reference: US12077503B2, “Substituted cyclic amides and their use as herbicides” (FMC CORPORATION, priority 2015, dated 2024)

Columns and labels:
Format in all cases: in vivo
[1] = test system: barnyardgrass (Echinochloa crus-galli); assay: Test G Pre-Emergence Protocol; details: Echinochloa crus-galli, pre-emergence, 312 h, evaluated after 13 days; for pest or weed control at 15.625 g/ha: 15.625 g ai/ha, read-out: Barnyard grass damage rating (100=total damage to plant; 0=no damage to plant); for pest or weed control at 62.5 g/ha: 62.5 g ai/ha, 100=total damage to plant, 0=no damage to plant, read-out: plant damage rating, Barnyardgrass; for pest or weed control at 250 g/ha: 250 g ai/ha, read-out: Barnyardgrass damage rating (100=total damage to plant; 0=no damage to plant)
Procedure, shortened: (§1)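 Pre-emergence spray, 15.625/62.5/250 g/ha, vehicle acetone:water 50:50 + 0.5% Tween 20, applied 1 d after sowing. Glasshouse 24/16° C, 14 h light, 65% RH, watered twice daily. Visual damage rating at 13 d, 0–100 scale.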

[2] = test system: corn (Zea mays); assay: Test G Pre-Emergence Protocol; details: Zea mays, pre-emergence, 312 h, evaluated after 13 days; for plant injury at 15.625 g/ha: 15.625 g ai/ha; for plant injury at 15.625 g/ha / plant injury at 250 g/ha: read-out: Corn damage rating (100=total damage to plant; 0=no damage to plant); for plant injury at 62.5 g/ha: 62.5 g ai/ha, 100=total damage to plant, 0=no damage to plant, read-out: plant damage rating, Corn; for plant injury at 250 g/ha: 250 g ai/ha
Procedure, shortened: as §1

[3] = test system: giant foxtail (Setaria faberi); assay: Test G Pre-Emergence Protocol; details: Setaria faberi, pre-emergence, 312 h, evaluated after 13 days; for pest or weed control at 15.625 g/ha: 15.625 g ai/ha; for pest or weed control at 15.625 g/ha / pest or weed control at 250 g/ha: read-out: Foxtail, Giant damage rating (100=total damage to plant; 0=no damage to plant); for pest or weed control at 62.5 g/ha: 62.5 g ai/ha, 100=total damage to plant, 0=no damage to plant, read-out: plant damage rating, Foxtail, Giant; for pest or weed control at 250 g/ha: 250 g ai/ha
Procedure, shortened: as §1

[4] = test system: ivy-leaved morning glory (Ipomoea hederacea); assay: Test G Pre-Emergence Protocol; details: Ipomoea, pre-emergence, 312 h, evaluated after 13 days; for pest or weed control at 15.625 g/ha: 15.625 g ai/ha, read-out: Morning-glory, Ivy-leaved damage rating (100=total damage to plant; 0=no damage to plant); for pest or weed control at 62.5 g/ha: 62.5 g ai/ha, 100=total damage to plant, 0=no damage to plant, read-out: plant damage rating, Morningglory, Ivy-leaved; for pest or weed control at 250 g/ha: 250 g ai/ha, read-out: Morningglory, Ivy-leaved damage rating (100=total damage to plant; 0=no damage to plant)
Procedure, shortened: as §1

[5] = test system: redroot pigweed (Amaranthus retroflexus); assay: Test G Pre-Emergence Protocol; details: Amaranthus retroflexus, pre-emergence, 312 h, evaluated after 13 days; for pest or weed control at 15.625 g/ha: 15.625 g ai/ha; for pest or weed control at 15.625 g/ha / pest or weed control at 250 g/ha: read-out: Pigweed, Redroot damage rating (100=total damage to plant; 0=no damage to plant); for pest or weed control at 62.5 g/ha: 62.5 g ai/ha, 100=total damage to plant, 0=no damage to plant, read-out: plant damage rating, Pigweed, Redroot; for pest or weed control at 250 g/ha: 250 g ai/ha
Procedure, shortened: as §1

[6] = test system: velvetleaf (Abutilon theophrasti); assay: Test G Pre-Emergence Protocol; details: Abutilon theophrasti, pre-emergence, 312 h, evaluated after 13 days; for pest or weed control at 15.625 g/ha: 15.625 g ai/ha; for pest or weed control at 15.625 g/ha / pest or weed control at 250 g/ha: read-out: Velvetleaf damage rating (100=total damage to plant; 0=no damage to plant); for pest or weed control at 62.5 g/ha: 62.5 g ai/ha, 100=total damage to plant, 0=no damage to plant, read-out: plant damage rating, Velvetleaf; for pest or weed control at 250 g/ha: 250 g ai/ha
Procedure, shortened: as §1

[7] = test system: barnyardgrass (Echinochloa crus-galli); assay: Test G Post-Emergence Protocol; details: Echinochloa crus-galli, post-emergence, 312 h; for pest or weed control at 15.625 g/ha: 15.625 g ai/ha, evaluated after 13 days (100=total damage to plant; 0=no damage to plant), read-out: Barnyardgrass damage rating; for pest or weed control at 62.5 g/ha: 62.5 g ai/ha, read-out: Barnyardgrass damage rating (100=total damage to plant; 0=no damage to plant); for pest or weed control at 62.5 g/ha / pest or weed control at 250 g/ha: evaluated after 13 days; for pest or weed control at 250 g/ha: 250 g ai/ha, read-out: damage to plant, Barnyardgrass (100=total damage to plant; 0=no damage to plant)
Procedure, shortened: (§2)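 Damage was rated 13 days after treatment from 0 (none) to 100 (plant killed). Compound was applied as a spray at 15.625, 62.5 or 250 g/ha in 50:50 acetone/water containing 0.5% Tween 20, onto 8-day-old potted plants kept in a glasshouse (24/16 °C, 14 h light, 65% humidity).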

[8] = test system: corn (Zea mays); assay: Test G Post-Emergence Protocol; details: Zea mays, post-emergence, 312 h; for plant injury at 15.625 g/ha: 15.625 g ai/ha, evaluated after 13 days (100=total damage to plant; 0=no damage to plant), read-out: Corn damage rating; for plant injury at 62.5 g/ha: 62.5 g ai/ha, read-out: Corn damage rating (100=total damage to plant; 0=no damage to plant); for plant injury at 62.5 g/ha / plant injury at 250 g/ha: evaluated after 13 days; for plant injury at 250 g/ha: 250 g ai/ha, read-out: damage to plant, Corn (100=total damage to plant; 0=no damage to plant)
Procedure, shortened: as §2

[9] = test system: giant foxtail (Setaria faberi); assay: Test G Post-Emergence Protocol; details: Setaria faberi, post-emergence, 312 h; for pest or weed control at 15.625 g/ha: 15.625 g ai/ha, evaluated after 13 days (100=total damage to plant; 0=no damage to plant), read-out: Foxtail, Giant damage rating; for pest or weed control at 62.5 g/ha: 62.5 g ai/ha, read-out: Foxtail, Giant damage rating (100=total damage to plant; 0=no damage to plant); for pest or weed control at 62.5 g/ha / pest or weed control at 250 g/ha: evaluated after 13 days; for pest or weed control at 250 g/ha: 250 g ai/ha, read-out: damage to plant, Foxtail, Giant (100=total damage to plant; 0=no damage to plant)
Procedure, shortened: as §2

[10] = test system: ivy-leaved morning glory (Ipomoea hederacea); assay: Test G Post-Emergence Protocol; details: Ipomoea, post-emergence, 312 h; for pest or weed control at 15.625 g/ha: 15.625 g ai/ha, evaluated after 13 days (100=total damage to plant; 0=no damage to plant), read-out: Morningglory, Ivy-leaved damage rating; for pest or weed control at 62.5 g/ha: 62.5 g ai/ha, read-out: Morningglory, Ivy-leaved damage rating (100=total damage to plant; 0=no damage to plant); for pest or weed control at 62.5 g/ha / pest or weed control at 250 g/ha: evaluated after 13 days; for pest or weed control at 250 g/ha: 250 g ai/ha, read-out: damage to plant, Morningglory, Ivy-leaved (100=total damage to plant; 0=no damage to plant)
Procedure, shortened: as §2

[11] = test system: redroot pigweed (Amaranthus retroflexus); assay: Test G Post-Emergence Protocol; details: Amaranthus retroflexus, post-emergence, 312 h; for pest or weed control at 15.625 g/ha: 15.625 g ai/ha, evaluated after 13 days (100=total damage to plant; 0=no damage to plant), read-out: Pigweed, Redroot damage rating; for pest or weed control at 62.5 g/ha: 62.5 g ai/ha, read-out: Pigweed, Redroot damage rating (100=total damage to plant; 0=no damage to plant); for pest or weed control at 62.5 g/ha / pest or weed control at 250 g/ha: evaluated after 13 days; for pest or weed control at 250 g/ha: 250 g ai/ha, read-out: damage to plant, Pigweed, Redroot (100=total damage to plant; 0=no damage to plant)
Procedure, shortened: as §2

[12] = test system: velvetleaf (Abutilon theophrasti); assay: Test G Post-Emergence Protocol; details: Abutilon theophrasti, post-emergence, 312 h; for pest or weed control at 15.625 g/ha: 15.625 g ai/ha, evaluated after 13 days (100=total damage to plant; 0=no damage to plant), read-out: Velvetleaf damage rating; for pest or weed control at 62.5 g/ha: 62.5 g ai/ha, read-out: Velvetleaf damage rating (100=total damage to plant; 0=no damage to plant); for pest or weed control at 62.5 g/ha / pest or weed control at 250 g/ha: evaluated after 13 days; for pest or weed control at 250 g/ha: 250 g ai/ha, read-out: damage to plant, Velvetleaf (100=total damage to plant; 0=no damage to plant)
Procedure, shortened: as §2

Row | SMILES | pest or weed control at 15.625 g/ha [1] | pest or weed control at 62.5 g/ha [1] | pest or weed control at 250 g/ha [1] | plant injury at 15.625 g/ha [2] | plant injury at 62.5 g/ha [2] | plant injury at 250 g/ha [2] | pest or weed control at 15.625 g/ha [3] | pest or weed control at 62.5 g/ha [3] | pest or weed control at 250 g/ha [3] | pest or weed control at 15.625 g/ha [4] | pest or weed control at 62.5 g/ha [4] | pest or weed control at 250 g/ha [4] | pest or weed control at 15.625 g/ha [5] | pest or weed control at 62.5 g/ha [5] | pest or weed control at 250 g/ha [5] | pest or weed control at 15.625 g/ha [6] | pest or weed control at 62.5 g/ha [6] | pest or weed control at 250 g/ha [6] | pest or weed control at 15.625 g/ha [7] | pest or weed control at 62.5 g/ha [7] | also measured
1 | CN1C[C@@H](c2cc(Cl)nc(C(F)(F)F)c2)[C@H](C(=O)Nc2cccc(F)c2F)C1=O (racemic) [Compound 1485] | 60% | 90% | 90% | 40% | 70% | 80% | 60% | 90% | 90% | 0% | 0% | 0% | 0% | 30% | 60% | 0% | 0% | 30% | 50% | 70% | pest or weed control at 250 g/ha [7]: 70%; plant injury at 15.625 g/ha [8]: 40%; plant injury at 62.5 g/ha [8]: 70%; plant injury at 250 g/ha [8]: 80%; pest or weed control at 15.625 g/ha [9]: 60%; pest or weed control at 62.5 g/ha [9]: 70%; pest or weed control at 250 g/ha [9]: 70%; pest or weed control at 15.625 g/ha [10]: 0%; pest or weed control at 62.5 g/ha [10]: 0%; pest or weed control at 250 g/ha [10]: 20%; pest or weed control at 15.625 g/ha [11]: 0%; pest or weed control at 62.5 g/ha [11]: 20%; pest or weed control at 250 g/ha [11]: 40%; pest or weed control at 15.625 g/ha [12]: 0%; pest or weed control at 62.5 g/ha [12]: 10%; pest or weed control at 250 g/ha [12]: 20%
2 | CN1C[C@@H](c2ccc(C(F)(F)F)cc2)[C@H](C(=O)Nc2cccc(F)c2C(F)(F)F)C1=O (racemic) [Compound 1609] | 20% | 50% | 80% | 0% | 10% | 40% | 70% | 80% | 80% | 10% | 20% | 70% | 20% | 40% | 70% | 10% | 10% | 30% | 20% | 70% | pest or weed control at 250 g/ha [7]: 70%; plant injury at 15.625 g/ha [8]: 10%; plant injury at 62.5 g/ha [8]: 10%; plant injury at 250 g/ha [8]: 60%; pest or weed control at 15.625 g/ha [9]: 70%; pest or weed control at 62.5 g/ha [9]: 80%; pest or weed control at 250 g/ha [9]: 80%; pest or weed control at 15.625 g/ha [10]: 20%; pest or weed control at 62.5 g/ha [10]: 20%; pest or weed control at 250 g/ha [10]: 70%; pest or weed control at 15.625 g/ha [11]: 30%; pest or weed control at 62.5 g/ha [11]: 70%; pest or weed control at 250 g/ha [11]: 70%; pest or weed control at 15.625 g/ha [12]: 0%; pest or weed control at 62.5 g/ha [12]: 20%; pest or weed control at 250 g/ha [12]: 50%
3 | Cc1cc(NC(=O)[C@@H]2C(=O)N(C)C[C@H]2c2ccc(C(F)(F)F)cc2)no1 (racemic) [Compound 1556] | 0% | 0% | 0% | 0% | 0% | 0% | 0% | 0% | 0% | 0% | 0% | 0% | 0% | 0% | 20% | 0% | 0% | 0% | 0% | 0% | pest or weed control at 250 g/ha [7]: 20%; plant injury at 15.625 g/ha [8]: 0%; plant injury at 62.5 g/ha [8]: 0%; plant injury at 250 g/ha [8]: 0%; pest or weed control at 15.625 g/ha [9]: 0%; pest or weed control at 62.5 g/ha [9]: 0%; pest or weed control at 250 g/ha [9]: 0%; pest or weed control at 15.625 g/ha [10]: 0%; pest or weed control at 62.5 g/ha [10]: 0%; pest or weed control at 250 g/ha [10]: 0%; pest or weed control at 15.625 g/ha [11]: 0%; pest or weed control at 62.5 g/ha [11]: 0%; pest or weed control at 250 g/ha [11]: 0%; pest or weed control at 15.625 g/ha [12]: 0%; pest or weed control at 62.5 g/ha [12]: 0%; pest or weed control at 250 g/ha [12]: 0%
